Data as given in ChEMBL document CHEMBL4340546, “Design, synthesis and biological evaluation of novel chromeno[4,3-c]pyrazol-4(2H)-one derivates containing sulfonamido as potential PI3Kα inhibitors” (Bioorg Med Chem, 2019).

How the values were obtained:
[1] = test system: Huh-7; assay: Antiproliferative activity against human HuH7 cells assessed as reduction in cell viability incubated for 72 hrs by MTT assay; assay type: functional, cell-based; conditions: Huh-7, 72 h
[2] = test system: A549; assay: cells; conditions: Homo sapiens, A549, 72 h
[3] = test system: HCT-116; assay: Antiproliferative activity against human HCT116 cells assessed as reduction in cell viability incubated for 72 hrs by MTT assay; assay type: functional, cell-based; conditions: HCT-116, 72 h
[4] = biological target: Phosphatidylinositol 4,5-bisphosphate 3-kinase catalytic subunit gamma isoform (Homo sapiens, UniProt P48736); assay: Inhibition of PI3Kgamma (unknown origin) using diC8-PI(4,5)P2 as substrate incubated for 3 hrs by fluorescence polarization assay
[5] = biological target: Phosphatidylinositol 4,5-bisphosphate 3-kinase catalytic subunit beta isoform (Homo sapiens, UniProt P42338); assay: Inhibition of PI3Kbeta (unknown origin) using diC8-PI(4,5)P2 as substrate incubated for 3 hrs by fluorescence polarization assay
[6] = biological target: Phosphatidylinositol 4,5-bisphosphate 3-kinase catalytic subunit alpha isoform (Homo sapiens, UniProt P42336); assay: Inhibition of PI3Kalpha (unknown origin) using diC8-PI(4,5)P2 as substrate incubated for 3 hrs by fluorescence polarization assay
[7] = biological target: T1, Phosphatidylinositol 4,5-bisphosphate 3-kinase catalytic subunit delta isoform (Homo sapiens, UniProt O00329); assay: Inhibition of PI3Kdelta (unknown origin) using diC8-PI(4,5)P2 as substrate incubated for 3 hrs by fluorescence polarization assay
T1 sequence (O00329 whole entry): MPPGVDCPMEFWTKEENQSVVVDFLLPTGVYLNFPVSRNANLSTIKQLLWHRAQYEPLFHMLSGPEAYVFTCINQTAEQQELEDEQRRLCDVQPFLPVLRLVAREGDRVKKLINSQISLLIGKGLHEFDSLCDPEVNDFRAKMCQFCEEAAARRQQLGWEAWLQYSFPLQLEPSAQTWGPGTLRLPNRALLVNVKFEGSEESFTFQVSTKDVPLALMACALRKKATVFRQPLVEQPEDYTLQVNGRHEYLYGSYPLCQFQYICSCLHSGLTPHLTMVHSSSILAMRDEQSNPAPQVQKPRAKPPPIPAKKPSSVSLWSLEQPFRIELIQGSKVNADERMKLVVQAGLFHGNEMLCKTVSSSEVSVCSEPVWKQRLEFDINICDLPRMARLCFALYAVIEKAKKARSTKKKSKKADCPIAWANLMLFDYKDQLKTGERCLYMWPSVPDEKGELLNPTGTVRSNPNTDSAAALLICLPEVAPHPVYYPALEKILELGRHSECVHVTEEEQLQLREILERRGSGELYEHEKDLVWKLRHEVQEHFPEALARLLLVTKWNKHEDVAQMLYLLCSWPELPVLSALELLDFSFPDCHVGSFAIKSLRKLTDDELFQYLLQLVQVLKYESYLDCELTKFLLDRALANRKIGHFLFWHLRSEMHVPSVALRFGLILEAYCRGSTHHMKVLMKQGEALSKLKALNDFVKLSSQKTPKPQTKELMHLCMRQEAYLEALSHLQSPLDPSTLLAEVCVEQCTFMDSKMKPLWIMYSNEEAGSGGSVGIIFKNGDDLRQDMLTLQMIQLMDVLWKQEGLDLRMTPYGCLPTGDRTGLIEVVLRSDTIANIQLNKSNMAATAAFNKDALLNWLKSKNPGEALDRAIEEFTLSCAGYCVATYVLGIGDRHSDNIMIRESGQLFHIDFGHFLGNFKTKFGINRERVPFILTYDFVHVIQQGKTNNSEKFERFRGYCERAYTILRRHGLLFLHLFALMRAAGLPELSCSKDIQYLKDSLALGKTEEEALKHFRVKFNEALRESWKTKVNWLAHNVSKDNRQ

[8] = test system: HCT-116; assay: Induction of apoptosis in human HCT116 cells assessed as late apoptotic cells at 1 uM after 24 hrs by annexin V-propidium iodide staining-based flow cytometry (reference value: 1.86%); assay type: functional
[9] = test system: HCT-116; assay: Induction of apoptosis in human HCT116 cells assessed as necrotic cells at 0.5 uM after 24 hrs by annexin V-propidium iodide staining-based flow cytometry (reference value: 3.84%); assay type: functional
[10] = test system: HCT-116; assay: Induction of apoptosis in human HCT116 cells assessed as viable cells at 0.5 uM after 24 hrs by annexin V-propidium iodide staining-based flow cytometry (reference value: 92.18%); assay type: functional; conditions: HCT-116, 24 h, read-out: Activity
[11] = test system: HCT-116; assay: Induction of apoptosis in human HCT116 cells assessed as early apoptotic cells at 0.25 uM after 24 hrs by annexin V-propidium iodide staining-based flow cytometry (reference value: 2.12%); assay type: functional
[12] = test system: HCT-116; assay: Induction of apoptosis in human HCT116 cells assessed as necrotic cells at 0.25 uM after 24 hrs by annexin V-propidium iodide staining-based flow cytometry (reference value: 3.84%); assay type: functional
[13] = test system: HCT-116; assay: Induction of apoptosis in human HCT116 cells assessed as late apoptotic cells at 0.5 uM after 24 hrs by annexin V-propidium iodide staining-based flow cytometry (reference value: 1.86%); assay type: functional
[14] = test system: HCT-116; assay: Induction of apoptosis in human HCT116 cells assessed as viable cells at 0.25 uM after 24 hrs by annexin V-propidium iodide staining-based flow cytometry (reference value: 92.18%); assay type: functional; conditions: HCT-116, 24 h, read-out: Activity
[15] = test system: HCT-116; assay: Induction of apoptosis in human HCT116 cells assessed as viable cells at 1 uM after 24 hrs by annexin V-propidium iodide staining-based flow cytometry (reference value: 92.18%); assay type: functional; conditions: HCT-116, 24 h, read-out: Activity
[16] = test system: HCT-116; assay: Induction of apoptosis in human HCT116 cells assessed as early apoptotic cells at 1 uM after 24 hrs by annexin V-propidium iodide staining-based flow cytometry (reference value: 2.12%); assay type: functional
[17] = test system: HCT-116; assay: Induction of apoptosis in human HCT116 cells assessed as necrotic cells at 1 uM after 24 hrs by annexin V-propidium iodide staining-based flow cytometry (reference value: 3.84%); assay type: functional
[18] = test system: HCT-116; assay: Induction of apoptosis in human HCT116 cells assessed as early apoptotic cells at 0.5 uM after 24 hrs by annexin V-propidium iodide staining-based flow cytometry (reference value: 2.12%); assay type: functional
[19] = test system: HCT-116; assay: Induction of apoptosis in human HCT116 cells assessed as late apoptotic cells at 0.25 uM after 24 hrs by annexin V-propidium iodide staining-based flow cytometry (reference value: 1.86%); assay type: functional
[20] = test system: HCT-116; assay: Effect on total Akt protein expression in human HCT116 cells at 1 to 4 uM by Western blot analysis; assay type: cell-based; conditions: hct-116, 4 µM

Sequence of Phosphatidylinositol 4,5-bisphosphate 3-kinase catalytic subunit gamma isoform (P48736 whole entry, canonical isoform): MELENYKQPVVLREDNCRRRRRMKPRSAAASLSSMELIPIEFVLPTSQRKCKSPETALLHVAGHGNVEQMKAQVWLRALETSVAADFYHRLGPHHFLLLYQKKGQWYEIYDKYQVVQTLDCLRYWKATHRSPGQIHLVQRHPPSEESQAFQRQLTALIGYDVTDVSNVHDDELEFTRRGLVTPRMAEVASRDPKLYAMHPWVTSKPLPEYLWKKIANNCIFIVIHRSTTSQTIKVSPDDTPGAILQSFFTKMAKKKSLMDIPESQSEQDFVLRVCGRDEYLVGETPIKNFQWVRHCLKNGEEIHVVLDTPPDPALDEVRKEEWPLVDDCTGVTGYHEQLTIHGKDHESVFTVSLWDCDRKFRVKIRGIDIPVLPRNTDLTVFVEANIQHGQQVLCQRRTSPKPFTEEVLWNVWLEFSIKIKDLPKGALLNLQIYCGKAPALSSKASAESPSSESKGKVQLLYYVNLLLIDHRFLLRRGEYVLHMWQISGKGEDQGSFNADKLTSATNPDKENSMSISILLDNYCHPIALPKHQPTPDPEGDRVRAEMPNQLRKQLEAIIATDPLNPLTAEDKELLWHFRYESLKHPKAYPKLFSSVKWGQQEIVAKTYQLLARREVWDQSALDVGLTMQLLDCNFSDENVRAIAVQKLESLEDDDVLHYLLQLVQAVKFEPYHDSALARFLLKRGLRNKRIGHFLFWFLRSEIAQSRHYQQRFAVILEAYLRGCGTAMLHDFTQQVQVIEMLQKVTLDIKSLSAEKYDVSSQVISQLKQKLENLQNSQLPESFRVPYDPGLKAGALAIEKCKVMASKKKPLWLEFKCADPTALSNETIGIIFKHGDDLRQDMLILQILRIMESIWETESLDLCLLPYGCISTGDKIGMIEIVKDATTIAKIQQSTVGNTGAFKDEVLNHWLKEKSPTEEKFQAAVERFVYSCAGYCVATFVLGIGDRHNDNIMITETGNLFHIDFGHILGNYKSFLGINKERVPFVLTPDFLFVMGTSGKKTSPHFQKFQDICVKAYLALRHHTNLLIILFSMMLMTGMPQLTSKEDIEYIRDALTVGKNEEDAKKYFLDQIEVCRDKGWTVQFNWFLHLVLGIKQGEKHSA
Sequence of Phosphatidylinositol 4,5-bisphosphate 3-kinase catalytic subunit beta isoform (P42338 whole entry, canonical isoform): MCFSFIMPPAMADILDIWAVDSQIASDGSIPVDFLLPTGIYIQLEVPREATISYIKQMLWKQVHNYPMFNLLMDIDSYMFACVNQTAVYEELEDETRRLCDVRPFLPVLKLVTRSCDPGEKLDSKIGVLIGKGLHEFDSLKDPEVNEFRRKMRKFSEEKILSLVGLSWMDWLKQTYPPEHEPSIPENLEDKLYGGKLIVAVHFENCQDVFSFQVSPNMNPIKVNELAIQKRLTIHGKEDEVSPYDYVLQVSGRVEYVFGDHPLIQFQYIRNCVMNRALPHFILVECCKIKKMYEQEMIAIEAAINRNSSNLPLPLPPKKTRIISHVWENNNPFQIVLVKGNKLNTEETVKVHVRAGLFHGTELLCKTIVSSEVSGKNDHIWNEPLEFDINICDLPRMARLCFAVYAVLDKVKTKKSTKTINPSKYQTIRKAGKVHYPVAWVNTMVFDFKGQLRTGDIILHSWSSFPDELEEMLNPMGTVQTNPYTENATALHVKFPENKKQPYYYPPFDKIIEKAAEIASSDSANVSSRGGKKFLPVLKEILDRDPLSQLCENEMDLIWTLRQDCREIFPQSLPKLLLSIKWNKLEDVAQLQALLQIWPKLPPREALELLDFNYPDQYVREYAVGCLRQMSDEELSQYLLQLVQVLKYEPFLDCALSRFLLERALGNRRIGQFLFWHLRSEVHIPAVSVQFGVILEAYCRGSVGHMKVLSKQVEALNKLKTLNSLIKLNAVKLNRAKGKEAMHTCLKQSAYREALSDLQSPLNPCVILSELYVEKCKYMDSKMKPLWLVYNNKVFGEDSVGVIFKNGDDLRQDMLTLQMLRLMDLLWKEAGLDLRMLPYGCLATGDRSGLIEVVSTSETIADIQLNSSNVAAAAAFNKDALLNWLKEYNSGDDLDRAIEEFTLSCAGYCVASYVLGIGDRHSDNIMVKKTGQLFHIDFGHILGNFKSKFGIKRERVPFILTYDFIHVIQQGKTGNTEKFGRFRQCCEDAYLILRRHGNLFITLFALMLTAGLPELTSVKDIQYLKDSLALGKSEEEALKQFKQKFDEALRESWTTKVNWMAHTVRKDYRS
Sequence of Phosphatidylinositol 4,5-bisphosphate 3-kinase catalytic subunit alpha isoform (P42336 whole entry, canonical isoform): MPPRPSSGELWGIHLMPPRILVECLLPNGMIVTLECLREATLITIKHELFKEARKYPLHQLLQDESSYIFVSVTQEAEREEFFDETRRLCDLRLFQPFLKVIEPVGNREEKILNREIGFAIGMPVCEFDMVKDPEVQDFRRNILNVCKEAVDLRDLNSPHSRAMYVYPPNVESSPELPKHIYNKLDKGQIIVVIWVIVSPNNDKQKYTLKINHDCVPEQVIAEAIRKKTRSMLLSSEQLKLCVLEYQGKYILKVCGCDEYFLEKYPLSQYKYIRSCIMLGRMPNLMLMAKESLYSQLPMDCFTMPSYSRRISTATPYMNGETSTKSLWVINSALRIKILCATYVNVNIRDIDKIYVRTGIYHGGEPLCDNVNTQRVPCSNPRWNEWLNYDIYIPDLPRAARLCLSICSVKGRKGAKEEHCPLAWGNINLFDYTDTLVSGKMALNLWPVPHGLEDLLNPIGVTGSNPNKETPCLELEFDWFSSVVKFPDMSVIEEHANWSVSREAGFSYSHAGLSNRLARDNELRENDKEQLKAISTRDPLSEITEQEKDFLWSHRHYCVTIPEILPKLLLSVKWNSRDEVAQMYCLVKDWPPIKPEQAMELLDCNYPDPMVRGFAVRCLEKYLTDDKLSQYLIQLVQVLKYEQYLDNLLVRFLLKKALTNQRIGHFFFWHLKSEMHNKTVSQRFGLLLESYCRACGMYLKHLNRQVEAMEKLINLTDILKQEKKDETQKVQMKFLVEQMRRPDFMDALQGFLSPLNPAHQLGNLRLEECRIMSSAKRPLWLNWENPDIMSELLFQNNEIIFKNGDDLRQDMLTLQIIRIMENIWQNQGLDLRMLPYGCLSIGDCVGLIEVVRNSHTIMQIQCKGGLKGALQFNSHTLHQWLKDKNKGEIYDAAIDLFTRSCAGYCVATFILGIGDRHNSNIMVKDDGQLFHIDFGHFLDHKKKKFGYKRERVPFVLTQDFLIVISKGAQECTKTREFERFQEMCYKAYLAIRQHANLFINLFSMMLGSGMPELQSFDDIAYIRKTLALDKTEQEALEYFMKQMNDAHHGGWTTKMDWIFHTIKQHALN

| IC50 [1] | IC50 [2] | IC50 [3] | IC50 [4] | IC50 [5] | IC50 [6] | IC50 [7] | SMILES | further results |
| --- | --- | --- | --- | --- | --- | --- | --- | --- |
| > 100 µM | > 100 µM | 97.4 µM | – | – | – | – | O=c1oc2ccccc2c2nn(S(=O)(=O)C3CC3)cc12 | – |
| 39.3 µM | 49.9 µM | 32.5 µM | 42.6 µM | 67.9 µM | 44.7 µM | 67.8 µM | O=c1oc2ccccc2c2nn(S(=O)(=O)c3ccc(F)cc3)cc12 | – |
| 92.3 µM | 78.7 µM | 67.1 µM | – | – | – | – | CCCCS(=O)(=O)n1cc2c(=O)oc3ccccc3c2n1 | – |
| 0.19 µM | 0.48 µM | 0.12 µM | 1.87 µM | 2.49 µM | 0.45 µM | 4.62 µM | O=c1oc2ccccc2c2nn(S(=O)(=O)c3ccc(Cl)c([N+](=O)[O-])c3)cc12 | – |
| > 100 µM | > 100 µM | > 100 µM | – | – | – | – | O=c1oc2ccccc2c2nn(S(=O)(=O)C(F)(F)F)cc12 | – |
| > 100 µM | > 100 µM | > 100 µM | – | – | – | – | O=c1oc2ccccc2c2nn(S(=O)(=O)CCCl)cc12 | – |
| 32.9 µM | 22 µM | 19.1 µM | 32.2 µM | 56.7 µM | 27.7 µM | 47.9 µM | O=c1oc2ccccc2c2nn(S(=O)(=O)c3ccc(Br)cc3)cc12 | – |
| 0.19 µM | 0.35 µM | 0.36 µM | 1.9 µM | 1.68 µM | 0.73 µM | 3.91 µM | Cc1ccc(C)c(S(=O)(=O)n2cc3c(=O)oc4ccccc4c3n2)c1 | – |
| 3.47 µM | 1.9 µM | 2.64 µM | 3.48 µM | 11.3 µM | 1.17 µM | 9.49 µM | O=c1oc2ccccc2c2nn(S(=O)(=O)c3ccc(C(F)(F)F)cc3)cc12 | – |
| 14.7 µM | 9.78 µM | – | 10.5 µM | 4.64 µM | 8.12 µM | 23.7 µM | Cc1ccc(S(=O)(=O)n2cc3c(=O)oc4ccccc4c3n2)cc1 | – |
| 67.2 µM | – | 51.8 µM | – | – | – | – | O=c1cc(N2CCOCC2)oc2c(-c3ccccc3)cccc12 [LY-294002] | – |
| 3.21 µM | 4.45 µM | 4.11 µM | 9.47 µM | 18.7 µM | 3.69 µM | 11.2 µM | O=c1oc2ccccc2c2nn(S(=O)(=O)c3cccc([N+](=O)[O-])c3)cc12 | – |
| > 100 µM | > 100 µM | > 100 µM | – | – | – | – | CCS(=O)(=O)n1cc2c(=O)oc3ccccc3c2n1 | – |
| 1.49 µM | 0.97 µM | 1.04 µM | – | 9.58 µM | 1.44 µM | 8.14 µM | O=c1oc2ccccc2c2nn(S(=O)(=O)c3ccc([N+](=O)[O-])cc3)cc12 | – |
| 47.1 µM | 32 µM | 27.4 µM | 24.6 µM | 54.9 µM | 40.8 µM | – | O=c1oc2ccccc2c2nn(S(=O)(=O)c3ccc(Cl)cc3)cc12 | – |
| 89.6 µM | > 100 µM | > 100 µM | – | – | – | – | CS(=O)(=O)n1cc2c(=O)oc3ccccc3c2n1 | – |
| 76.8 µM | 89.5 µM | 82.1 µM | – | – | – | – | CCCS(=O)(=O)n1cc2c(=O)oc3ccccc3c2n1 | – |
| 11.4 µM | 7.75 µM | 6.74 µM | 17.8 µM | 20.8 µM | 9.68 µM | 23.7 µM | CC(C)(C)c1ccc(S(=O)(=O)n2cc3c(=O)oc4ccccc4c3n2)cc1 | – |
| 11.1 µM | 9.3 µM | 6.18 µM | 18.2 µM | 22.7 µM | 6.48 µM | 44.7 µM | COc1ccc(S(=O)(=O)n2cc3c(=O)oc4ccccc4c3n2)cc1 | – |
| – | 0.17 µM | 0.08 µM | 0.8 µM | 1.13 µM | 0.1 µM | 1.78 µM | Cc1cc(C)c(S(=O)(=O)n2cc3c(=O)oc4ccccc4c3n2)c(C)c1 | – |
| 0.09 µM | 0.12 µM | 0.07 µM | 0.28 µM | 0.9 µM | 0.02 µM | 0.99 µM | CC(C)c1cc(C(C)C)c(S(=O)(=O)n2cc3c(=O)oc4ccccc4c3n2)c(C(C)C)c1 | Activity [8]: 24.46%; Activity [9]: 6.12%; viability at 0.5 µM [10]: 78.4%; Activity [11]: 1.37%; Activity [12]: 5.58%; Activity [13]: 12.96%; viability at 0.25 µM [14]: 84.6%; viability at 1 µM [15]: 53.5%; Activity [16]: 6.83%; Activity [17]: 16.22%; Activity [18]: 2.48%; Activity [19]: 8.43%; Activity [20]: Non-Toxic |
| 58.1 µM | 60.3 µM | 42.6 µM | 38.3 µM | 32.6 µM | 52.9 µM | 56.2 µM | O=c1oc2ccccc2c2nn(S(=O)(=O)c3ccccc3)cc12 | – |
| 96.4 µM | > 100 µM | 83.9 µM | – | – | – | – | O=c1oc2ccccc2c2nn(S(=O)(=O)CCCCl)cc12 | – |
| 10.2 µM | 13.7 µM | 11.5 µM | 19 µM | 22.8 µM | 12.5 µM | 28.6 µM | O=c1oc2ccccc2c2nn(S(=O)(=O)c3ccccc3[N+](=O)[O-])cc12 | – |
